Legend:
Assay type in all cases: in vivo
AMAPA [1] = test: Pre-emergence biological efficacy; details: Amaranthus palmeri, 312 h, evaluated after 13 days, read-out: damage to plant (100=total damage to plant; 0=no damage to plant)
How it was run: (§1)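 Sow in pots → 1 d glasshouse, 24/19 °C, 16 h light → spray compound (IF50/acetone formulation, 0.2% Genapol XO80 diluent) → grow 24/18 °C, 15 h light, 50% RH, water 2×/day → score damage 0–100 at 13 d.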

ECHCG [2] = test: Pre-emergence biological efficacy; details: Echinochloa crus-galli, 312 h, evaluated after 13 days, read-out: damage to plant (100=total damage to plant; 0=no damage to plant)
How it was run: as §1

EPHHL [3] = test: Pre-emergence biological efficacy; details: Euphorbia heterophylla, 312 h, evaluated after 13 days, read-out: damage to plant (100=total damage to plant; 0=no damage to plant)
How it was run: as §1

IPOHE [4] = test: Pre-emergence biological efficacy; details: Ipomoea hederacea, 312 h, evaluated after 13 days, read-out: damage to plant (100=total damage to plant; 0=no damage to plant)
How it was run: as §1

LOLPE [5] = test: Pre-emergence biological efficacy; details: Lolium perenne, 312 h, evaluated after 13 days, read-out: damage to plant (100=total damage to plant; 0=no damage to plant)
How it was run: as §1

SETFA [6] = test: Pre-emergence biological efficacy; details: Setaria faberi, 312 h, evaluated after 13 days, read-out: damage to plant (100=total damage to plant; 0=no damage to plant)
How it was run: as §1

AMAPA [7] = test: Post-emergence biological efficacy; details: Amaranthus palmeri, 312 h, evaluated after 13 days, read-out: damage to plant (100=total damage to plant; 0=no damage to plant)
How it was run: (§2)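 Damage was rated 13 days after treatment, from 0 (none) to 100 (total). Test compounds, formulated in IF50 and diluted with 0.2% Genapol XO80 to final dose, were sprayed on glasshouse plants raised for 14 days from seed.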

CHEAL = test: Post-emergence biological efficacy; details: Chenopodium album, 312 h, evaluated after 13 days, read-out: damage to plant (100=total damage to plant; 0=no damage to plant)
How it was run: as §2

DIGSA = test: Post-emergence biological efficacy; details: Digitaria sanguinalis, 312 h, evaluated after 13 days, read-out: damage to plant (100=total damage to plant; 0=no damage to plant)
How it was run: as §2

ECHCG [8] = test: Post-emergence biological efficacy; details: Echinochloa crus-galli, 312 h, evaluated after 13 days, read-out: damage to plant (100=total damage to plant; 0=no damage to plant)
How it was run: as §2

ELEIN = test: Post-emergence biological efficacy; details: 312 h, evaluated after 13 days, read-out: damage to plant (100=total damage to plant; 0=no damage to plant)
How it was run: as §2

EPHHL [9] = test: Post-emergence biological efficacy; details: Euphorbia heterophylla, 312 h, evaluated after 13 days, read-out: damage to plant (100=total damage to plant; 0=no damage to plant)
How it was run: as §2

IPOHE [10] = test: Post-emergence biological efficacy; details: Ipomoea hederacea, 312 h, evaluated after 13 days, read-out: damage to plant (100=total damage to plant; 0=no damage to plant)
How it was run: as §2

LOLPE [11] = test: Post-emergence biological efficacy; details: Lolium perenne, 312 h, evaluated after 13 days, read-out: damage to plant (100=total damage to plant; 0=no damage to plant)
How it was run: as §2

SETFA [12] = test: Post-emergence biological efficacy; details: Setaria faberi, 312 h, evaluated after 13 days, read-out: damage to plant (100=total damage to plant; 0=no damage to plant)
How it was run: as §2

| SMILES | pest or weed control at 250 g/ha (AMAPA [1]) | pest or weed control at 250 g/ha (ECHCG [2]) | pest or weed control at 250 g/ha (EPHHL [3]) | pest or weed control at 250 g/ha (IPOHE [4]) | pest or weed control at 250 g/ha (LOLPE [5]) | pest or weed control at 250 g/ha (SETFA [6]) | pest or weed control at 250 g/ha (AMAPA [7]) | pest or weed control at 250 g/ha (CHEAL) | pest or weed control at 250 g/ha (DIGSA) | pest or weed control at 250 g/ha (ECHCG [8]) | pest or weed control at 250 g/ha (ELEIN) | pest or weed control at 250 g/ha (EPHHL [9]) | pest or weed control at 250 g/ha (IPOHE [10]) | pest or weed control at 250 g/ha (LOLPE [11]) | pest or weed control at 250 g/ha (SETFA [12]) |
| --- | --- | --- | --- | --- | --- | --- | --- | --- | --- | --- | --- | --- | --- | --- | --- |
| CCOC(=O)C1(C)CC(c2cc(-c3cnc4ccccc4c3)c(F)cc2Cl)=NO1 (stereo not drawn) [Compound 1-439, Ethyl 3-[2-chloro-4-fluoro-5-(3-quinolyl)-phenyl]-5-methyl-4H-isoxazole-5-carboxylate] | 50% | 30% | 10% | 10% | 20% | 20% | 70% | 50% | 30% | 30% | 50% | 40% | 40% | 20% | 30% |
| CCOC(=O)C1(C)CC(c2cc(-c3cnc4c(c3)OC(F)(F)O4)c(F)cc2Cl)=NO1 (stereo not drawn) [Compound 1-451, Ethyl 3-[2-chloro-5-(2,2-difluoro-[1,3]dioxolo[4,5-b]pyridin-6-yl)-4-fluoro-phenyl]-5-methyl-4H-isoxazole-5-carboxylate] | 90% | 40% | 80% | 50% | 40% | 40% | 100% | 100% | 100% | 100% | 100% | 100% | 100% | 100% | 100% |
| CCOC(=O)C1(C)CC(c2cc(-c3ccc(C)nc3F)c(F)cc2Cl)=NO1 (stereo not drawn) [Compound 1-463, Ethyl 3-[2-chloro-4-fluoro-5-(2-fluoro-6-methyl-3-pyridyl)-phenyl]-5-methyl-4H-isoxazole-5-carboxylate] | 20% | 50% | 20% | 10% | 10% | 30% | 70% | 70% | 70% | 90% | 60% | 70% | 100% | 0% | 90% |
| CCOC(=O)C1(C)CC(c2cc(-c3cc(F)cnc3Cl)c(F)cc2Cl)=NO1 (stereo not drawn) [Compound 1-475, Ethyl 3-[2-chloro-5-(2-chloro-5-fluoro-3-pyridyl)-4-fluoro-phenyl]-5-methyl-4H-isoxazole-5-carboxylate] | 0% | 0% | 40% | 20% | 0% | 0% | 100% | 100% | 50% | 80% | 30% | 70% | 100% | 10% | 80% |
| CCOC(=O)C1(C)CC(c2cc(-c3ccncc3)c(F)cc2Cl)=NO1 (stereo not drawn) [Compound 1-487, Ethyl 3-[2-chloro-4-fluoro-5-(4-pyridyl)-phenyl]-5-methyl-4H-isoxazole-5-carboxylate] | 0% | 0% | 0% | 0% | 0% | 0% | 30% | 0% | 0% | 0% | 0% | 0% | 0% | 0% | 0% |
